In publication PMC9021288 (Nature Communications, 2022):
Where “and” joins values, the source holds several entries; their conditions need not be identical. Equal entries are not always repeated.

Key:
[1] = 7-day Maximum Tolerated Dose 1 (MTD1) rat study; format: in vivo, Wistar Han rats; design: AUC(0 - t) / Cmax / Urea / Glucose / Triglycerides: unit not given here
Description: See the summary of the study design in Supplementary Table 31. Nine-week-old Wistar (Crl:WI (Han)) rats were obtained from Charles River Laboratories (Domaine des Oncins, Saint-Germain-Nuelles, France). […] Animals were examined daily for any altered clinical signs, body weights, and food consumption. Blood samples were taken at different timepoints after the test item administration, and toxicokinetic exposure assessed under the defined experimental conditions and analyzed using Phoenix (version 6.4 and 1.4) (Supplementary Table 32). Measurements included hematology and clinical chemistry measurements. Animals were euthanized and necropsied at the end of the dosing period. At necropsy, major organ systems and tissues were collected and weighed and then examined for gross lesions as well as for microscopic changes.

[2] = biological target: T1, panel of human receptors and channels (Homo sapiens, UniProt P21728); format: binding; conditions: D1 (h) (antagonist radioligand); Rep1, Rep2, Mean
T1 construct: purchased Eurofins CEREP

[3] = biological target: T2, panel of human receptors and channels (Homo sapiens, UniProt P31645); format: binding; conditions: 5-HT transporter (h) (antagonist radioligand); Rep1, Rep2, Mean
T2 construct: purchased Eurofins CEREP

[4] = biological target: T3, panel of human receptors and channels (Homo sapiens, UniProt Q9GZV3); format: binding; conditions: choline transporter (CHT1) (h) (antagonist radioligand); Rep1, Rep2, Mean
T3 construct: purchased Eurofins CEREP

[5] = biological target: T4, panel of human receptors and channels (Homo sapiens, UniProt P43116); format: binding; conditions: EP2 (h) (agonist radioligand); Rep1, Rep2, Mean
T4 construct: purchased Eurofins CEREP

[6] = biological target: T5, panel of human receptors and channels (Homo sapiens, UniProt Q9Y5N1); format: binding; conditions: H3 (h) (agonist radioligand); Rep1, Rep2, Mean
T5 construct: purchased Eurofins CEREP

[7] = biological target: T6, panel of human receptors and channels (Homo sapiens, UniProt P29371); format: binding; conditions: NK3 (h) (antagonist radioligand); Rep1, Rep2, Mean
T6 construct: purchased Eurofins CEREP

[8] = biological target: T7, panel of human receptors and channels (Homo sapiens, UniProt P25021); format: binding; conditions: H2 (h) (antagonist radioligand); Rep1, Rep2, Mean
T7 construct: purchased Eurofins CEREP

[9] = biological target: T8, panel of human receptors and channels (Homo sapiens, UniProt P23975); format: binding; conditions: norepinephrine transporter (h) (antagonist radioligand); Rep1, Rep2, Mean
T8 construct: purchased Eurofins CEREP

[10] = biological target: T9, panel of human receptors and channels (Homo sapiens, UniProt P37231); format: binding; conditions: PPARγ (h) (agonist radioligand); Rep1, Rep2, Mean
T9 construct: purchased Eurofins CEREP

[11] = biological target: T10, panel of human receptors and channels (Homo sapiens, UniProt P08588); format: binding; conditions: β1 (h) (agonist radioligand); Rep1, Rep2, Mean
T10 construct: purchased Eurofins CEREP

[12] = biological target: T11, panel of human receptors and channels (Homo sapiens, UniProt P04150); format: binding; conditions: GR (h) (agonist radioligand); Rep1, Rep2, Mean
T11 construct: purchased Eurofins CEREP

[13] = biological target: T12, panel of human receptors and channels (Homo sapiens, UniProt P07550); format: binding; conditions: β2 (h) (antagonist radioligand); Rep1, Rep2, Mean
T12 construct: purchased Eurofins CEREP

[14] = biological target: T13, panel of human receptors and channels (Homo sapiens, UniProt P34981); format: binding; conditions: TRH1 (h) (agonist radioligand); Rep1, Rep2, Mean
T13 construct: purchased Eurofins CEREP
T13 sequence (P34981 whole entry): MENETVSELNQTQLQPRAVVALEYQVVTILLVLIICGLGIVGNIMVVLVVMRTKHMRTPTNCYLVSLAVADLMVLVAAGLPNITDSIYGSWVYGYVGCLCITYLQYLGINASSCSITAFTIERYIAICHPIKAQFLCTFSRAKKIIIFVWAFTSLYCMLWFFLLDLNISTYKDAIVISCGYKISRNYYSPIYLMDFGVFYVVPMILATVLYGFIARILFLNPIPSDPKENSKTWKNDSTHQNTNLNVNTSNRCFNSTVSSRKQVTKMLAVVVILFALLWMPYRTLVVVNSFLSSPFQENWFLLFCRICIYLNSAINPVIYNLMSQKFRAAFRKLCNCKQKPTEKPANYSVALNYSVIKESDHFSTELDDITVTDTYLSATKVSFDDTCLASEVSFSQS

T6 sequence (P29371 whole entry): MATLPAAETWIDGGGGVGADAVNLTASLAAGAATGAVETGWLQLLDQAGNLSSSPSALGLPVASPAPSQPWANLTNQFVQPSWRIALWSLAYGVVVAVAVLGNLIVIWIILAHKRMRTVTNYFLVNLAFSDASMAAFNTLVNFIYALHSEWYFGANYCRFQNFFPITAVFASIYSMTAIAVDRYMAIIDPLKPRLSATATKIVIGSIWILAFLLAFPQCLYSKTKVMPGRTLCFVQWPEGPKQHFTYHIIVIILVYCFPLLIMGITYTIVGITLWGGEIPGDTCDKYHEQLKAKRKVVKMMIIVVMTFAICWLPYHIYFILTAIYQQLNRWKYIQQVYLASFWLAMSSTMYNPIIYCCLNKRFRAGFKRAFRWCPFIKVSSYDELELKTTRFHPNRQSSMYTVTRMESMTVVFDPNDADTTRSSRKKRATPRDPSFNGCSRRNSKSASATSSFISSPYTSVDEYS
T7 sequence (P25021 whole entry): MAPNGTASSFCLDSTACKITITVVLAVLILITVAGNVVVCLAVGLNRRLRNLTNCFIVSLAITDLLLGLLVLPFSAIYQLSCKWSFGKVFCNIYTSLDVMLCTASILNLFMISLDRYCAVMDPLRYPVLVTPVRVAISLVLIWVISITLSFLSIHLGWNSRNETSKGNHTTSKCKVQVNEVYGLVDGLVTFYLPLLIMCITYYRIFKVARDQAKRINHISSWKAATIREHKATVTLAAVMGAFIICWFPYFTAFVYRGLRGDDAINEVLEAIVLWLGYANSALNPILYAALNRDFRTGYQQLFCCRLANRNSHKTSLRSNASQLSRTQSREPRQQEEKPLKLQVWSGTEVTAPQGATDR
T5 sequence (Q9Y5N1 whole entry): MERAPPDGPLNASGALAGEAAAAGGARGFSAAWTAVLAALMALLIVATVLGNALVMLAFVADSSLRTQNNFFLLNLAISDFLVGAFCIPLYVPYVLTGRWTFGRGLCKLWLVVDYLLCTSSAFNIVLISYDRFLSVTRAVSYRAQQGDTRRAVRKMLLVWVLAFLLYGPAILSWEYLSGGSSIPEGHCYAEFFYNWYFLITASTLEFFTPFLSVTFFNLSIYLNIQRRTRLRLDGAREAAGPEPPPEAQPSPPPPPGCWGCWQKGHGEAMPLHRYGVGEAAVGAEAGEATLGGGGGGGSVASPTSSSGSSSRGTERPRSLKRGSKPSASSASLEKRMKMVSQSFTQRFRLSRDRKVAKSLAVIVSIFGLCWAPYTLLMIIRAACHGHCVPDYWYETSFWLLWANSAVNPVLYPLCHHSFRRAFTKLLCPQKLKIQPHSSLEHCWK
T3 sequence (Q9GZV3 whole entry): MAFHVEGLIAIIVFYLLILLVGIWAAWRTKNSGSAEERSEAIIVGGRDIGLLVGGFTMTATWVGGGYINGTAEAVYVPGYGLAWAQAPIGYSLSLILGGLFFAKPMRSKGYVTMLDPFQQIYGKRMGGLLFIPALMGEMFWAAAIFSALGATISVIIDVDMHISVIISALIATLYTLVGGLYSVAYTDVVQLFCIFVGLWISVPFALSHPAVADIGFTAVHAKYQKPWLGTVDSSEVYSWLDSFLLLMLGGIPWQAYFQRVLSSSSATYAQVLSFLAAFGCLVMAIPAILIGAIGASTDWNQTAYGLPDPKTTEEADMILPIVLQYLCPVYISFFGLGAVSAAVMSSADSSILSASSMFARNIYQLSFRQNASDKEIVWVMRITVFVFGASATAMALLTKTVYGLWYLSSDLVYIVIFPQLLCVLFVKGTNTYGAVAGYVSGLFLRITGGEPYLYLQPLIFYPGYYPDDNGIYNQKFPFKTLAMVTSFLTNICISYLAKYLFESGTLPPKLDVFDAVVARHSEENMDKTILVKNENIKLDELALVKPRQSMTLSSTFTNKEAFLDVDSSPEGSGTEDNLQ
T9 sequence (P37231 whole entry): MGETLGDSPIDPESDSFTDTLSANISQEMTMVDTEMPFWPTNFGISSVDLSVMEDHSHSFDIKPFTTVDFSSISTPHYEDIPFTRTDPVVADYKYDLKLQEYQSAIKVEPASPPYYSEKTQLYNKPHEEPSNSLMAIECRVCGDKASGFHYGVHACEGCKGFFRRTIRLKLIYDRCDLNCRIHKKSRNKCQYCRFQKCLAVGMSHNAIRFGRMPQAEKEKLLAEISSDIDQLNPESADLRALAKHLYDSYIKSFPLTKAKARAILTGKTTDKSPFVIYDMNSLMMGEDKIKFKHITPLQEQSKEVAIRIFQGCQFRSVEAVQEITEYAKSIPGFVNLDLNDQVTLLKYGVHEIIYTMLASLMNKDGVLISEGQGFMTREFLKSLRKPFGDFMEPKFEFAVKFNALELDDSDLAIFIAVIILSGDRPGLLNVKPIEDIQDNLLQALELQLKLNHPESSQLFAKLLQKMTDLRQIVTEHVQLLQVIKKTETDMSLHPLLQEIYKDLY
T12 sequence (P07550 whole entry): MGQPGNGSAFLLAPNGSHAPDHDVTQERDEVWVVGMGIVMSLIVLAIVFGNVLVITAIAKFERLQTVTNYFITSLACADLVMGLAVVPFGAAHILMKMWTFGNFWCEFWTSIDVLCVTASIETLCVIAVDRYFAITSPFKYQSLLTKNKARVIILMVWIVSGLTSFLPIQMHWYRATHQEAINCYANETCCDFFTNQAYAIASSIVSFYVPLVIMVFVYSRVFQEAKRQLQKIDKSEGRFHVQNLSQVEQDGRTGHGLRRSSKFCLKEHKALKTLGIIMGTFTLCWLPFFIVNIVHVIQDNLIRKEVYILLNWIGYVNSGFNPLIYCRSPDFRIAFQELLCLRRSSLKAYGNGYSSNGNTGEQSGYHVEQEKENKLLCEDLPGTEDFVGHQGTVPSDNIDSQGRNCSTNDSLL
T1 sequence (P21728 whole entry): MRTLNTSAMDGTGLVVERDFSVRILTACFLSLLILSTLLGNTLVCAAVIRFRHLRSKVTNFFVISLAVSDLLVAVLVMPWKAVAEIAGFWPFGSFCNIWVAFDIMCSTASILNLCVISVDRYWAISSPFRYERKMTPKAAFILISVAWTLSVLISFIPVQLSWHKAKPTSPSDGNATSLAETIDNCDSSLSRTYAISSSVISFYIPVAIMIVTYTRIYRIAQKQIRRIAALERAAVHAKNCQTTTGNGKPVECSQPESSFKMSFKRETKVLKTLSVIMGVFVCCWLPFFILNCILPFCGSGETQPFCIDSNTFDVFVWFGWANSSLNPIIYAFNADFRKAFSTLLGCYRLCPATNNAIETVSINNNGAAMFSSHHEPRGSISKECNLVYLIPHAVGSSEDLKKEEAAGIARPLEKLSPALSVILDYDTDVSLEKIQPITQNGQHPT
T10 sequence (P08588 whole entry): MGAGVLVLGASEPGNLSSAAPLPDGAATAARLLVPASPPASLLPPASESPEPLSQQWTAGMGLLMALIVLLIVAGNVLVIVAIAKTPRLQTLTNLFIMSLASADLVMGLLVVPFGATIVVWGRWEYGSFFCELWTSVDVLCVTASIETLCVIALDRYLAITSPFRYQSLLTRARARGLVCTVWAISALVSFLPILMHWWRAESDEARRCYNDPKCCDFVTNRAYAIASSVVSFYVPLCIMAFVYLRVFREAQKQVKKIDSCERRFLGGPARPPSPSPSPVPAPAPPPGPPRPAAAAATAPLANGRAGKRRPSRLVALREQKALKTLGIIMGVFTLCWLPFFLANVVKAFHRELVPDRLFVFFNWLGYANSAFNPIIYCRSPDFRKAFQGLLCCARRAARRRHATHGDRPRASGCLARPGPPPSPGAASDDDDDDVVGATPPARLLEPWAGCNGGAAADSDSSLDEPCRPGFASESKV
T2 sequence (P31645 whole entry): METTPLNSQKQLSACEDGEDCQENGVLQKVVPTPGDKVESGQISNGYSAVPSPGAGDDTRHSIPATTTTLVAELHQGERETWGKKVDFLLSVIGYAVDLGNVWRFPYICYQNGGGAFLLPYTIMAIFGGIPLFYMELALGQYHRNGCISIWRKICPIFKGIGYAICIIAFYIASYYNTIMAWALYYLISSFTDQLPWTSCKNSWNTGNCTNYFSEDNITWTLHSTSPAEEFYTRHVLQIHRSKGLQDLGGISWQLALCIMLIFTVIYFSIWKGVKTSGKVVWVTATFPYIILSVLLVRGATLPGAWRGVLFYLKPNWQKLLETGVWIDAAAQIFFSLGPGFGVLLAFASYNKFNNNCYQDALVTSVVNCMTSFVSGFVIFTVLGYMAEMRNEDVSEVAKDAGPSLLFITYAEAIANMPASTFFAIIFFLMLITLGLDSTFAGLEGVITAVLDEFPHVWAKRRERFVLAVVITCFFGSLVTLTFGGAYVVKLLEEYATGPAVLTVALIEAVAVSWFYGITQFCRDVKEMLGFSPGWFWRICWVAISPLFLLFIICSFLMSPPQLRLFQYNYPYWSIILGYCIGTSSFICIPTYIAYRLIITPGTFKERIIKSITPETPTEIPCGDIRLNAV

With `C[C@@H](CNC(=O)[C@H](O)C(C)(C)CO)NC(=O)c1cc(F)c(F)cc1F` [MMV693183] the mortality ([1]; 60, 200, 600 mg/kg/day, 7 days) was “no mortality occurred”, the Glucose ([1]; Female, 60 mg/kg) was 6.25 and 5.62 and 5.48 and the Triglycerides ([1]; Female, 60 mg/kg) was 0.3 and 0.46 and 0.39. The Urea ([1]; Female, 60 mg/kg) was 6.7 and 8 and 8.3, the Glucose ([1]; Female, 200 mg/kg) was 5.19 and 5.85 and 7.06 and the Triglycerides ([1]; Female, 200 mg/kg) was 0.51 and 0.91 and 0.6. The Urea ([1]; Female, 200 mg/kg) was 7.8 and 8 and 8.4, the Glucose ([1]; Female, 600 mg/kg) was 6.4 and 7.42 and 7.56 and the Triglycerides ([1]; Female, 600 mg/kg) was 0.6 and 0.51 and 0.37. The Urea ([1]; Female, 600 mg/kg) was 7.4 and 6.8 and 9.9, the Liver weight ([1]; MTD1 60 mg/kg/day, Females) was 4.77 g and the “AUC(0 - t)” value ([1]; MTD1 60 mg/kg/day, Females, Day 1 then Day 7) was 88.9. For the same compound, the Liver weight ([1]; MTD1 60 mg/kg/day, Males) was 7.73 g, the Liver weight ([1]; MTD1 200 mg/kg/day, Females) was 6.00 g and the Liver weight ([1]; MTD1 200 mg/kg/day, Males) was 8.66 g. For the same compound, the Liver weight ([1]; MTD1 600 mg/kg/day, Females) was 7.44 g, the Liver weight ([1]; MTD1 600 mg/kg/day, Males) was 11.22 g and the Concentration ([1]; MTD1 females, Day 1, 60 mg/kg/day, 0 h) was “LLOQ”. For the same compound, the Concentration ([1]; MTD1 females, Day 1, 60 mg/kg/day, 1 h) was 33.6 µM and 28.3 µM, the Concentration ([1]; MTD1 females, Day 1, 60 mg/kg/day, 4 h) was 2.9 µM and 3.29 µM and the Concentration ([1]; MTD1 females, Day 1, 60 mg/kg/day, 8 h) was 1.05 µM and 0.628 µM. For the same compound, the Concentration ([1]; MTD1 females, Day 1, 60 mg/kg/day, 24 h) was “LLOQ”, the Concentration ([1]; MTD1 females, Day 1, 200 mg/kg/day, 0 h) was “LLOQ” and the Concentration ([1]; MTD1 females, Day 1, 200 mg/kg/day, 1 h) was 86.7 µM and 116 µM. The Concentration ([1]; MTD1 females, Day 1, 200 mg/kg/day, 4 h) was 21.3 µM and 11.6 µM, the Concentration ([1]; MTD1 females, Day 1, 200 mg/kg/day, 8 h) was 6.7 µM and 4.68 µM and the Concentration ([1]; MTD1 females, Day 1, 600 mg/kg/day, 0 h) was “LLOQ”. For the same compound, the Concentration ([1]; MTD1 females, Day 1, 600 mg/kg/day, 1 h) was 311 µM, the Concentration ([1]; MTD1 females, Day 1, 600 mg/kg/day, 4 h) was 74.9 µM and 64.8 µM and the Concentration ([1]; MTD1 females, Day 1, 600 mg/kg/day, 8 h) was 49.5 µM and 25.8 µM. The Concentration ([1]; MTD1 females, Day 1, 600 mg/kg/day, 24 h) was “LLOQ”, the Concentration ([1]; MTD1 females, Day 7, 60 mg/kg/day, 0 h) was “LLOQ” and the Concentration ([1]; MTD1 females, Day 7, 60 mg/kg/day, 1 h) was 21.8 µM and 20.3 µM. The Concentration ([1]; MTD1 females, Day 7, 60 mg/kg/day, 4 h) was 2.9 µM and 3.02 µM, the Concentration ([1]; MTD1 females, Day 7, 60 mg/kg/day, 8 h) was 0.604 µM and 1.2 µM and the Concentration ([1]; MTD1 females, Day 7, 60 mg/kg/day, 24 h) was “LLOQ”. For the same compound, the Concentration ([1]; MTD1 females, Day 7, 200 mg/kg/day, 0 h) was “LLOQ”, the Concentration ([1]; MTD1 females, Day 7, 200 mg/kg/day, 1 h) was 10.4 µM and 9.61 µM and the Concentration ([1]; MTD1 females, Day 7, 200 mg/kg/day, 4 h) was 5.35 µM and 3.22 µM. For the same compound, the Concentration ([1]; MTD1 females, Day 7, 200 mg/kg/day, 8 h) was 0.804 µM and 0.957 µM, the Concentration ([1]; MTD1 females, Day 7, 200 mg/kg/day, 24 h) was “LLOQ” and the Concentration ([1]; MTD1 females, Day 7, 600 mg/kg/day, 0 h) was 0.568 µM and 0.368 µM. For the same compound, the Concentration ([1]; MTD1 females, Day 7, 600 mg/kg/day, 1 h) was 15.1 µM and 29.6 µM, the Concentration ([1]; MTD1 females, Day 7, 600 mg/kg/day, 4 h) was 8.62 µM and 9.68 µM and the Concentration ([1]; MTD1 females, Day 7, 600 mg/kg/day, 8 h) was 6.83 µM and 6.42 µM. For the same compound, the Concentration ([1]; MTD1 males, Day 1, 60 mg/kg/day, 0 h) was “LLOQ”, the Concentration ([1]; MTD1 males, Day 1, 60 mg/kg/day, 1 h) was 12 µM and 13.7 µM and the Concentration ([1]; MTD1 males, Day 1, 60 mg/kg/day, 4 h) was 1.09 µM and 1.97 µM. For the same compound, the Concentration ([1]; MTD1 males, Day 1, 60 mg/kg/day, 24 h) was “LLOQ”, the Concentration ([1]; MTD1 males, Day 1, 200 mg/kg/day, 0 h) was “LLOQ” and the Concentration ([1]; MTD1 males, Day 1, 200 mg/kg/day, 1 h) was 98.9 µM and 133 µM. The Concentration ([1]; MTD1 males, Day 1, 200 mg/kg/day, 4 h) was 14 µM and 18.5 µM, the Concentration ([1]; MTD1 males, Day 1, 200 mg/kg/day, 24 h) was “LLOQ” and the Concentration ([1]; MTD1 males, Day 1, 600 mg/kg/day, 0 h) was “LLOQ”. For the same compound, the Concentration ([1]; MTD1 males, Day 1, 600 mg/kg/day, 1 h) was 189 µM and 295 µM, the Concentration ([1]; MTD1 males, Day 1, 600 mg/kg/day, 4 h) was 69.9 µM and 98.6 µM and the Concentration ([1]; MTD1 males, Day 7, 60 mg/kg/day, 0 h) was “LLOQ”. The Concentration ([1]; MTD1 males, Day 7, 60 mg/kg/day, 1 h) was 2.78 µM and 3.29 µM, the Concentration ([1]; MTD1 males, Day 7, 60 mg/kg/day, 8 h) was “LLOQ” and the Concentration ([1]; MTD1 males, Day 7, 60 mg/kg/day, 24 h) was “LLOQ”. The Concentration ([1]; MTD1 males, Day 7, 200 mg/kg/day, 0 h) was “LLOQ”, the Concentration ([1]; MTD1 males, Day 7, 200 mg/kg/day, 1 h) was 15.5 µM and 8.65 µM and the Concentration ([1]; MTD1 males, Day 7, 200 mg/kg/day, 4 h) was 2.92 µM and 2.95 µM. For the same compound, the Concentration ([1]; MTD1 males, Day 7, 200 mg/kg/day, 8 h) was 1.04 µM and 0.952 µM, the Concentration ([1]; MTD1 males, Day 7, 200 mg/kg/day, 24 h) was “LLOQ” and the Concentration ([1]; MTD1 males, Day 7, 600 mg/kg/day, 0 h) was “LLOQ”. The Concentration ([1]; MTD1 males, Day 7, 600 mg/kg/day, 4 h) was 4.9 µM and 5.09 µM, the Concentration ([1]; MTD1 males, Day 7, 600 mg/kg/day, 24 h) was “LLOQ” and the “Liver weight” value ([1]; MTD1 study, females, 60 mg/kg/day, individual animals) was 4.84 g and 4.87 g. For the same compound, the “Liver weight” value ([1]; MTD1 study, females, 200 mg/kg/day, individual animals) was 6.04 g and 5.86 g, the “Liver weight” value ([1]; MTD1 study, females, 600 mg/kg/day, individual animals) was 6.96 g and the “Liver weight” value ([1]; MTD1 study, males, 60 mg/kg/day, individual animals) was 8.13 g and 7.71 g. The “Liver weight” value ([1]; MTD1 study, males, 200 mg/kg/day, individual animals) was 7.63 g and 8.4 g, the “Liver weight” value ([1]; MTD1 study, males, 600 mg/kg/day, individual animals) was 11.11 g and 12.08 g and the Triglycerides ([1]; Male, 60 mg/kg) was 0.56 and 0.92 and 0.69. The Urea ([1]; Male, 60 mg/kg) was 6.5 and 7.4 and 9.1, the Glucose ([1]; Male, 60 mg/kg, 7 days, per rat) was 7.28 and 9.9 and 8.53 and the Glucose ([1]; Male, 200 mg/kg) was 7.64 and 9.24 and 10.45. For the same compound, the Triglycerides ([1]; Male, 200 mg/kg) was 0.58 and 0.71 and 0.55, the Urea ([1]; Male, 200 mg/kg) was 8.3 and 8.1 and 9.4 and the Glucose ([1]; Male, 600 mg/kg) was 5.54 and 8.3 and 8.46. The Triglycerides ([1]; Male, 600 mg/kg) was 0.57 and 0.62 and 0.56, the Urea ([1]; Male, 600 mg/kg) was 9.5 and 9.2 and 8.3 and the “increase in liver weight” value ([1]; males, 600 mg/kg/day) was “up to 71%”. For the same compound, the “hematological and clinical chemistry parameters” value ([1]; rat, in vivo) was “no significant treatment-related deviations”, the “% Inhibition of Control Specific Binding” value [2] was -2.9% and 0.3% and -1.3% and the “% Inhibition of Control Specific Binding” value [3] was -13.7% and -4.2% and -8.95%. The “% Inhibition of Control Specific Binding” value [4] was 2.6% and 4.5% and 3.55%, the “% Inhibition of Control Specific Binding” value [5] was -1.6% and 2.2% and 0.3% and the “% Inhibition of Control Specific Binding” value [6] was -9.8% and -18.8% and -14.3%. For the same compound, the “% Inhibition of Control Specific Binding” value [7] was -0.9% and 5.3% and 2.2%, the “% Inhibition of Control Specific Binding” value [8] was -9.2% and -5.1% and -7.15% and the “% Inhibition of Control Specific Binding” value [9] was -1.3% and -5.4% and -3.35%. The “% Inhibition of Control Specific Binding” value [10] was -8.7% and -7.1% and -7.9%, the “% Inhibition of Control Specific Binding” value [11] was 13.7% and 4.9% and 9.3% and the “% Inhibition of Control Specific Binding” value [12] was -7.3%. For the same compound, the “% Inhibition of Control Specific Binding” value [13] was 3.7% and -4.8% and -0.55% and the “% Inhibition of Control Specific Binding” value [14] was -6.1% and -7.7% and -6.9%.
